Experimental data published in patent publication US7795290B2 (Genentech, Inc., priority 2004, dated 2010).

molecular target: T1, AKT1 (Homo sapiens, UniProt P31749); assay: HTS ATP-utilizing enzyme assay, off-chip mobility-shift (Caliper HTS 250); format: biochemical; conditions: kinase named = inhibitory activity/selectivity; test compound 10 μM; active = greater than three-sigma from mean
T1 construct: purchased Upstate 14-276
How it was run: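 AKT1 activity was measured by off-chip mobility shift (Caliper HTS 250) as the ratio of peptide substrate to phosphorylated product. Test compound was at 10 μM, with 2.5 h incubation at 20–22° C. EDTA wells served as 100% control and DMSO wells as 0%. Hits were called at three-sigma limits.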

T1 sequence (P31749 whole entry): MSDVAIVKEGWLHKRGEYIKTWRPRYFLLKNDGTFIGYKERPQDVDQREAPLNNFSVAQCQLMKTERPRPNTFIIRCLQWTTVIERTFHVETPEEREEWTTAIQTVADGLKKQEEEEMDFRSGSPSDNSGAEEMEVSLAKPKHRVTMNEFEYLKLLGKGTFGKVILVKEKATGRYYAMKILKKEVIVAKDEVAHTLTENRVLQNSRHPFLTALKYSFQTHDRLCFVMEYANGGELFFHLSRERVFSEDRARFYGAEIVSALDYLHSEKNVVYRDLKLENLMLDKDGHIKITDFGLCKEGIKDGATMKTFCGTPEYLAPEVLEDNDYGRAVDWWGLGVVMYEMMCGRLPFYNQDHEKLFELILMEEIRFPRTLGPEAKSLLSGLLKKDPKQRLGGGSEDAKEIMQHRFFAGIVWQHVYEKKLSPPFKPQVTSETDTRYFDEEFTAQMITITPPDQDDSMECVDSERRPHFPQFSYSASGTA

Activity, AKT1:
O=C(c1ccco1)N(CCCN1CCOCC1)c1nc(-c2ccccc2)cs1 [N-(3-morpholinopropyl)-N-(4-phenylthiazol-2-yl)furan-2-carboxamide]
O=C(c1cccs1)N(CCCN1CCOCC1)c1nc(-c2ccccc2)cs1 [N-(3-morpholinopropyl)-N-(4-phenylthiazol-2-yl)thiophene-2-carboxamide]
O=C(c1cccs1)N(CCCN1CCOCC1)c1nc(-c2cc3ccccc3[nH]2)cs1 [N-(4-(1H-indol-2-yl)thiazol-2-yl)-N-(3-morpholinopropyl)thiophene-2-carboxamide]
O=C(c1cccs1)N(CCCN1CCOCC1)c1nc(-c2ccc3c(c2)OCCO3)cs1 [N-(4-(2,3-dihydrobenzo[b][1,4]dioxin-6-yl)thiazol-2-yl)-N-(3-morpholinopropyl)thiophene-2-carboxamide]
O=C(c1cccs1)N(CCCN1CCOCC1)c1nc(-c2ccc(Cl)cc2Cl)cs1 [N-(4-(2,4-dichlorophenyl)thiazol-2-yl)-N-(3-morpholinopropyl)thiophene-2-carboxamide]
COc1ccc(-c2csc(N(CCCN3CCOCC3)C(=O)c3cccs3)n2)c(OC)c1 [N-(4-(2,4-dimethoxyphenyl)thiazol-2-yl)-N-(3-morpholinopropyl)thiophene-2-carboxamide]
Cc1ccc(-c2csc(N(CCCN3CCOCC3)C(=O)c3cccs3)n2)c(C)c1 [N-(4-(2,4-dimethylphenyl)thiazol-2-yl)-N-(3-morpholinopropyl)thiophene-2-carboxamide]
COc1ccc(OC)c(-c2csc(N(CCCN3CCN(C)CC3)C(=O)c3ccccc3)n2)c1 [N-(4-(2,5-dimethoxyphenyl)thiazol-2-yl)-N-(3-(4-methylpiperazin-1-yl)propyl)benzamide]
COc1ccc(OC)c(-c2csc(N(CCCN3CCN(C)CC3)C(=O)c3cccs3)n2)c1 [N-(4-(2,5-dimethoxyphenyl)thiazol-2-yl)-N-(3-(4-methylpiperazin-1-yl)propyl)thiophene-2-carboxamide]
COc1ccc(OC)c(-c2csc(N(CCCN3CCCCC3)C(=O)c3ccccc3)n2)c1 [N-(4-(2,5-dimethoxyphenyl)thiazol-2-yl)-N-(3-(piperidin-1-yl)propyl)benzamide]
COc1ccc(OC)c(-c2csc(N(CCCN3CCCCC3)C(=O)c3ccco3)n2)c1 [N-(4-(2,5-dimethoxyphenyl)thiazol-2-yl)-N-(3-(piperidin-1-yl)propyl)furan-2-carboxamide]
COc1ccc(OC)c(-c2csc(N(CCCN3CCCCC3)C(=O)c3cccs3)n2)c1 [N-(4-(2,5-dimethoxyphenyl)thiazol-2-yl)-N-(3-(piperidin-1-yl)propyl)thiophene-2-carboxamide]
COc1ccc(OC)c(-c2csc(N(CCCN3CCCC3)C(=O)c3ccccc3)n2)c1 [N-(4-(2,5-dimethoxyphenyl)thiazol-2-yl)-N-(3-(pyrrolidin-1-yl)propyl)benzamide]
COc1ccc(OC)c(-c2csc(N(CCCN3CCCC3)C(=O)c3ccco3)n2)c1 [N-(4-(2,5-dimethoxyphenyl)thiazol-2-yl)-N-(3-(pyrrolidin-1-yl)propyl)furan-2-carboxamide]
COc1ccc(OC)c(-c2csc(N(CCCN3CCCC3)C(=O)c3cccs3)n2)c1 [N-(4-(2,5-dimethoxyphenyl)thiazol-2-yl)-N-(3-(pyrrolidin-1-yl)propyl)thiophene-2-carboxamide]
COc1ccc(OC)c(-c2csc(N(CCCN3CCOCC3)C(=O)c3ccco3)n2)c1 [N-(4-(2,5-dimethoxyphenyl)thiazol-2-yl)-N-(3-morpholinopropyl)furan-2-carboxamide]
COc1ccc(OC)c(-c2csc(N(CCCN3CCOCC3)C(=O)c3cccs3)n2)c1 [N-(4-(2,5-dimethoxyphenyl)thiazol-2-yl)-N-(3-morpholinopropyl)thiophene-2-carboxamide]
COc1ccc(-c2csc(N(CCCN3CCOCC3)C(=O)c3cccs3)n2)c(OC)n1 [N-(4-(2,6-dimethoxypyridin-3-yl)thiazol-2-yl)-N-(3-morpholinopropyl)thiophene-2-carboxamide]
NC(=O)CNC(=O)CCCN(C(=O)c1cccs1)c1nc(-c2cc3ccccc3o2)cs1 [N-(4-(2-amino-2-oxoethylamino)-4-oxobutyl)-N-(4-(benzofuran-2-yl)thiazol-2-yl)thiophene-2-carboxamide]
O=C(c1cccs1)N(CCCN1CCOCC1)c1nc(-c2ccccc2Cl)cs1 [N-(4-(2-chlorophenyl)thiazol-2-yl)-N-(3-morpholinopropyl)thiophene-2-carboxamide]
O=C(c1cccs1)N(CCCN1CCOCC1)c1nc(-c2ccccc2F)cs1 [N-(4-(2-fluorophenyl)thiazol-2-yl)-N-(3-morpholinopropyl)thiophene-2-carboxamide]
COc1ccccc1-c1csc(N(CCCN2CCOCC2)C(=O)c2cccs2)n1 [N-(4-(2-methoxyphenyl)thiazol-2-yl)-N-(3-morpholinopropyl)thiophene-2-carboxamide]
O=C(c1cccs1)N(CCCN1CCOCC1)c1nc(-c2ccc(Cl)c(Cl)c2)cs1 [N-(4-(3,4-dichlorophenyl)thiazol-2-yl)-N-(3-morpholinopropyl)thiophene-2-carboxamide]
O=C(c1cccs1)N(CCCN1CCOCC1)c1nc(-c2ccc(F)c(F)c2)cs1 [N-(4-(3,4-difluorophenyl)thiazol-2-yl)-N-(3-morpholinopropyl)thiophene-2-carboxamide]
COc1ccc(-c2csc(N(CCN3CCOCC3)C(=O)c3cccs3)n2)cc1OC [N-(4-(3,4-dimethoxyphenyl)thiazol-2-yl)-N-(2-morpholinoethyl)thiophene-2-carboxamide]
COc1ccc(-c2csc(N(CCCN3CCCC3=O)C(=O)c3cccs3)n2)cc1OC [N-(4-(3,4-dimethoxyphenyl)thiazol-2-yl)-N-(3-(2-oxopyrrolidin-1-yl)propyl)thiophene-2-carboxamide]
COc1ccc(-c2csc(N(CCCN3CCN(C)CC3)C(=O)c3cccs3)n2)cc1OC [N-(4-(3,4-dimethoxyphenyl)thiazol-2-yl)-N-(3-(4-methylpiperazin-1-yl)propyl)thiophene-2-carboxamide]
COc1ccc(-c2csc(N(CCCN3CCCCC3)C(=O)c3cccs3)n2)cc1OC [N-(4-(3,4-dimethoxyphenyl)thiazol-2-yl)-N-(3-(piperidin-1-yl)propyl)thiophene-2-carboxamide]
COc1ccc(-c2csc(N(CCCN3CCOCC3)C(=O)c3ccccc3)n2)cc1OC [N-(4-(3,4-dimethoxyphenyl)thiazol-2-yl)-N-(3-morpholinopropyl)benzamide]
COc1ccc(-c2csc(N(CCCN3CCOCC3)C(=O)C3CCC3)n2)cc1OC [N-(4-(3,4-dimethoxyphenyl)thiazol-2-yl)-N-(3-morpholinopropyl)cyclobutanecarboxamide]
COc1ccc(-c2csc(N(CCCN3CCOCC3)C(=O)C3CCCC3)n2)cc1OC [N-(4-(3,4-dimethoxyphenyl)thiazol-2-yl)-N-(3-morpholinopropyl)cyclopentanecarboxamide]
COc1ccc(-c2csc(N(CCCN3CCOCC3)C(=O)c3ccco3)n2)cc1OC [N-(4-(3,4-dimethoxyphenyl)thiazol-2-yl)-N-(3-morpholinopropyl)furan-2-carboxamide]
COc1ccc(-c2csc(N(CCCN3CCOCC3)C(=O)c3ccccn3)n2)cc1OC [N-(4-(3,4-dimethoxyphenyl)thiazol-2-yl)-N-(3-morpholinopropyl)picolinamide]
COc1ccc(-c2csc(N(CCCN3CCOCC3)C(=O)c3cccs3)n2)cc1OC [N-(4-(3,4-dimethoxyphenyl)thiazol-2-yl)-N-(3-morpholinopropyl)thiophene-2-carboxamide]
COc1ccc(-c2csc(N(CCCc3ccccc3)C(=O)c3cccs3)n2)cc1OC [N-(4-(3,4-dimethoxyphenyl)thiazol-2-yl)-N-(3-phenylpropyl)thiophene-2-carboxamide]
COc1ccc(-c2csc(N(CCCCCN3CCOCC3)C(=O)c3cccs3)n2)cc1OC [N-(4-(3,4-dimethoxyphenyl)thiazol-2-yl)-N-(5-morpholinopentyl)thiophene-2-carboxamide]
CN(C)CCOc1cccc(-c2csc(N(CCCN3CCOCC3)C(=O)c3cccs3)n2)c1 [N-(4-(3-(2-(dimethylamino)ethoxy)phenyl)thiazol-2-yl)-N-(3-morpholinopropyl)thiophene-2-carboxamide]
CN(C)CCCOc1cccc(-c2csc(N(CCCN3CCOCC3)C(=O)c3cccs3)n2)c1 [N-(4-(3-(3-(dimethylamino)propoxy)phenyl)thiazol-2-yl)-N-(3-morpholinopropyl)thiophene-2-carboxamide]
O=C(c1cccs1)N(CCCN1CCOCC1)c1nc(-c2cc(-c3ccc(Cl)cc3)no2)cs1 [N-(4-(3-(4-chlorophenyl)isoxazol-5-yl)thiazol-2-yl)-N-(3-morpholinopropyl)thiophene-2-carboxamide]
